The values below come from patent US6414038B2, “Hydroxystilbenes for reducing/inhibiting protein glycation and combating skin aging” (Societe L'Oreal, priority 1999, dated 2002).

Read-outs that look alike come from different tables or passages of the source.

The test addresses bovine serum albumin (Bos taurus, UniProt P02769). Description: Inhibition of glycation of bovine serum albumin by D-ribose (AGE fluorescence). Format: biochemical. To be noted: for inhibition at 1 µM / inhibition at 10 µM: read-out: % inhibition (of glycation). As for the experimental part: A solution of bovine serum albumin at 1 mg/ml in solution in phosphate buffered saline (PBS) was incubated at 37° C. for 14 days in the presence or in the absence of D-ribose at the concentration of […], of 3,3′,5,5′-tetrahydroxystilbene or of resveratrol, each at the concentrations of 1 μM and 10 μM.
The glycation was evaluated by measuring the fluorescence of the AGEs at λem.=440 nm emitted by each sample after excitation at λex.=370 nm.
The inhibition of glycation was visualized by the reduction in the fluorescence compared with the sample treated with the sugar alone.

Sequence of bovine serum albumin (P02769 25-607): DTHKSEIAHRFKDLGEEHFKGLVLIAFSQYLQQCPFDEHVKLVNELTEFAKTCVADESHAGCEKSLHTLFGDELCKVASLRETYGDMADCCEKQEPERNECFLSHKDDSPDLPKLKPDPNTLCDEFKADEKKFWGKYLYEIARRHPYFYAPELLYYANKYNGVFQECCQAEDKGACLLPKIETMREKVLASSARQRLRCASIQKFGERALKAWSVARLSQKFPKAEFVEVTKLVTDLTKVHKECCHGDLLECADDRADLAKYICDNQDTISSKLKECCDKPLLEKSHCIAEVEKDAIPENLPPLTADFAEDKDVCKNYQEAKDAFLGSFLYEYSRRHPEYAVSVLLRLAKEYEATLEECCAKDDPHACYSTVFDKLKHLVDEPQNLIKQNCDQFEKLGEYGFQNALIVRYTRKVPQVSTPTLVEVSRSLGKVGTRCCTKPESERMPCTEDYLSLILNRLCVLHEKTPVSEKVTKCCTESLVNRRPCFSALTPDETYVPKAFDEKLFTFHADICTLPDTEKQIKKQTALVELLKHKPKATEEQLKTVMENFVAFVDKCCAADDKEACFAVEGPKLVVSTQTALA

As to `Oc1cc(O)cc(/C=C/c2cc(O)cc(O)c2)c1` [A, 3,3′,5,5′-tetrahydroxystilbene], the inhibition (commonly the percentage by which the read-out fell short of the control) at 1 µM was 7.1% and the inhibition at 10 µM came to 14.3%. The “antiglycation effect relative to resveratrol” value (at the concentration of 10 μM) is about 2 times. The “antiglycation effect (in words)” value (from the concentration of 1 μM) was “advantageous antiglycation effect”.
`Oc1ccc(C=Cc2cc(O)cc(O)c2)cc1` [B, resveratrol, reference compound]: the inhibition at 1 µM (compound 1 μM, BSA 1 mg/ml in PBS, D-ribose 10 μM, 37° C., 14 days, AGE fluorescence λex 370 nm/λem 440 nm vs sugar alone) worked out at 7.1%. For the same molecule, the inhibition at 10 µM (compound 10 μM, BSA 1 mg/ml in PBS, D-ribose 10 μM, 37° C., 14 days, AGE fluorescence λex 370 nm/λem 440 nm vs sugar alone) was 7.1%.
